For this experiment, the system named is Meloidogyne incognita. Briefly: Meloidogyne incognita test (sand, lettuce, gall formation). The experiment is classed as in vivo. To be noted: Meloidogyne incognita, 336 h, 20 ppm, after 14 days; read-out: nematicidal efficacy (formation of galls). The essentials: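 Vessels held sand, diluted compound solution, M. incognita egg/larvae suspension and lettuce seeds, and the plants grew for 14 days. Efficacy in % came from root gall formation: 100% means no galls, 0% means galls equal to the untreated control.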
As for `O=C(NS(=O)(=O)c1cc(C(F)(F)F)ccc1Br)c1cn(-c2cc(Cl)cc(Cl)c2)cn1` [I-235], the pest or weed control at 20 ppm was 90%.

Regarding `O=C(NS(=O)(=O)c1ccccc1)c1cn(-c2cc(F)cc(Cl)c2)cn1` [I-236], the pest or weed control at 20 ppm was 90%.

With `O=C(NS(=O)(=O)c1ccccc1)c1cn(-c2cc(F)cc(F)c2)cn1` [I-237], the pest or weed control at 20 ppm was found to be 90%.

For the compound `O=C(NS(=O)(=O)c1ccccc1Cl)c1cn(-c2cc(F)cc(C(F)(F)F)c2)cn1` [I-238], the pest or weed control at 20 ppm turned out to be 90%.

In the case of `O=C(NS(=O)(=O)c1c(Cl)cccc1Cl)c1cn(-c2cc(F)cc(C(F)(F)F)c2)cn1` [I-239], the pest or weed control at 20 ppm was 100%.

Regarding `O=C(NS(=O)(=O)c1ccccc1Cl)c1cn(-c2cc(F)cc(Cl)c2)cn1` [I-240], the pest or weed control at 20 ppm was 100%.

As for `O=C(NS(=O)(=O)c1c(Cl)cccc1Cl)c1cn(-c2cc(F)cc(Cl)c2)cn1` [I-241], the pest or weed control at 20 ppm came out at 90%.

With `O=C(NS(=O)(=O)c1ccccc1Cl)c1cn(-c2cccc(Cl)c2Cl)cn1` [I-242], the pest or weed control at 20 ppm amounted to 100%.

For `O=C(NS(=O)(=O)c1c(Cl)cccc1Cl)c1cn(-c2cccc(Cl)c2Cl)cn1` [I-243], the pest or weed control at 20 ppm was found to be 100%.

As to `O=C(NS(=O)(=O)c1ccccc1Cl)c1cn(-c2c(Cl)cccc2Cl)cn1` [I-244], the pest or weed control at 20 ppm was determined as 100%.

With `O=C(NS(=O)(=O)c1c(Cl)cccc1Cl)c1cn(-c2c(Cl)cccc2Cl)cn1` [I-245], the pest or weed control at 20 ppm turned out to be 100%.

With `COc1ccc(Cl)c(S(=O)(=O)NC(=O)c2cn(-c3cccc(Cl)c3Cl)cn2)c1` [I-246], the pest or weed control at 20 ppm was determined as 100%.

For `COc1ccc(Cl)c(S(=O)(=O)NC(=O)c2cn(-c3cc(F)cc(Cl)c3)cn2)c1` [I-247], the pest or weed control at 20 ppm was determined as 100%.

As to `O=C(NS(=O)(=O)c1c(F)cccc1F)c1cn(-c2cccc(Cl)c2Cl)cn1` [I-248], the pest or weed control at 20 ppm is 100%.

`O=C(NS(=O)(=O)c1c(F)cccc1F)c1cn(-c2cc(F)cc(C(F)(F)F)c2)cn1` [I-249]: the pest or weed control at 20 ppm is 100%.

On to `COc1ccc(Cl)c(S(=O)(=O)NC(=O)c2cn(-c3c(Cl)cccc3Cl)cn2)c1` [I-251], for which the pest or weed control at 20 ppm came to 90%.

As for `Cc1nc(C(=O)NS(=O)(=O)c2ccccc2Cl)cn1-c1ccccc1` [I-252], the pest or weed control at 20 ppm amounted to 100%.

As to `Cc1nc(C(=O)NS(=O)(=O)c2ccccc2)cn1-c1ccc(Cl)cc1` [I-256], the pest or weed control at 20 ppm amounted to 100%.

In the case of `Cc1nc(C(=O)NS(=O)(=O)c2ccccc2Cl)cn1-c1ccc(Cl)cc1` [I-257], the pest or weed control at 20 ppm was 90%.

For the compound `Cc1nc(C(=O)NS(=O)(=O)c2c(Cl)cccc2Cl)cn1-c1ccc(Cl)cc1` [I-258], the pest or weed control at 20 ppm came out at 70%.

As for `COc1ccc(Cl)c(S(=O)(=O)NC(=O)c2cn(-c3ccc(Cl)cc3)c(C)n2)c1` [I-259], the pest or weed control at 20 ppm worked out at 100%.

Take `COc1ccc(Cl)c(S(=O)(=O)NC(=O)c2cn(-c3ccccc3F)c(C)n2)c1` [I-260]: the pest or weed control at 20 ppm is 70%.

Regarding `Cc1nc(C(=O)NS(=O)(=O)c2cccc(Cl)c2)cn1-c1ccc(Cl)cc1` [I-261], the pest or weed control at 20 ppm was determined as 100%.

Consider `Cc1nc(C(=O)NS(=O)(=O)c2ccc(Cl)cc2)cn1-c1ccc(Cl)cc1` [I-262], for which the pest or weed control at 20 ppm was determined as 100%.

Turning to `COc1ccc(Cl)c(S(=O)(=O)NC(=O)c2cn(-c3cccc(Cl)c3Cl)c(C)n2)c1` [I-263], the pest or weed control at 20 ppm came out at 90%.

Turning to `Cc1nc(C(=O)NS(=O)(=O)c2c(Cl)cccc2Cl)cn1-c1ccccc1Cl` [I-265], the pest or weed control at 20 ppm was found to be 90%.

As for `Cc1nc(C(=O)NS(=O)(=O)c2c(Cl)cccc2Cl)cn1-c1cccc(Cl)c1Cl` [I-267], the pest or weed control at 20 ppm is 100%.

On to `Cc1nc(C(=O)NS(=O)(=O)c2ccccc2)cn1-c1ccccc1Cl` [I-270], for which the pest or weed control at 20 ppm stood at 90%.

For `Cc1nc(C(=O)NS(=O)(=O)c2ccc(Cl)cc2)cn1-c1cccc(Cl)c1Cl` [I-271], the pest or weed control at 20 ppm turned out to be 100%.

The record behind these values is US10820591B2, “Substituted sulfonyl amides for controlling animal pests” (Bayer Aktiengesellschaft, priority 2016, dated 2020).
